Patent US20230285310A1, “COMPOSITIONS FOR THE DELIVERY OF PAYLOAD MOLECULES TO AIRWAY EPITHELIUM” (ModernaTX, Inc., priority 2020, published 2023)
Where a name gives a salt, the structure may show the parent alone.

Legend:
HeLa cells = assay: Protein expression assay in HeLa cells (One-Glo luciferase, NPI-Luc mRNA); format: cell-based, human; conditions: 5 h, no serum, 4 wells, sterol amine post-added to LNP core Compound 18, DSPC, Cholesterol plus DMG-PEG 2K (SA3, SA11, SA24, SA26, SA39, SA32), plus Compound 428 (SA4, SA6, SA10, SA16), or plus β-sitosterol and DMG-PEG 2K (SA23, SA29, SA30, SA31)
Procedure: To evaluate protein expression In Vitro, HeLa cells from ATCC.org (ATCC CCL-2) are used. The cells are cultured in complete Minimum Essential Medium (MEM) and are plated in 96 well Cell Carrier Ultra plate with PDL coated surface (PerkinElmer) prior to running an experiment.
LNPs encapsulating NPI-Luc mRNA were dosed with MEM media in the absence of serum. LNP transfected cell were incubated for 5 h post LNP transfection, the cells were imaged live using Opera Phoenix spinning disk confocal microscope (PerkinElmer). Cells were detected using DAPI (405 nm channel), and image analysis was performed in Harmony 4.9, to quantify the number of cells. After imaging the cells were processed with One-Glo Luciferase assay (Promega) to quantify protein expression. Results were reported in relative luminescence units (RLU) normalized to cells counts.
LNPs were prepared according to Example 2 using NPI-Luc as the mRNA construct. NPI-Luc is a dual read reporter made by adding a 5xV5 tag and a C-myc nuclear localization sequence at the N-terminus of Firefly Luciferase to enhance the signal to noise ratio. Protein expression can be detected using OneGLo assays with luminescence readout or by immunofluorescence with anti-V5 antibodies. Protein expression was evaluated according to the procedure outlined in Example 7. The LNPs are dosed in 4 wells and the average response was reported. For the HeLa assay the luminescence read (RLU) were normalized to cell counts.

respiratory epithelium [1] = assay: LNP protein expression in mouse after single dose of mRNA-LNP by intratracheal delivery (anti-V5 IHC); format: in vivo; conditions: intratracheal instillation, ~0.7 mpk, NPI-Luc mRNA, core with β-sitosterol for SA23, SA31
Procedure: (§1) Animals are anesthetized under isoflurane. The tongue is displaced and a small diameter cannula is inserted into the trachea (oropharyngeal route). The cannula tip is passed through the vocal chords, down the trachea so that the tip is very near, but not touching, the carina. Upon placement, 50 μL (mouse) or 200 μL (rat) of formulation is infused into the lungs. After 30 seconds upright, animals are released into a recovery cage and returned to their respective cages once recovered. Trachea, lungs and for the aerosol study nasal cavities, nasopharynx and larynx are collected for analysis. Lungs are inflated with 10% NBF fixative and trachea tied off to maintain inflation. Lungs are removed en bloc with attached trachea, bronchi and lobes. Whole lungs en bloc are fixed in 10% NBF at room temperature for at least 24 hours with a maximum of 48 hours and then removed from fixative and placed in PBS. Samples are immediately sent to be processed for paraffin 5-micron sections and H&E staining. IHC was performed on FFPE sections using the Leica Bond RX autostainer. […] Images were imaged at 20× magnification with the Panoramic 250 Flash III whole slide scanner. Image analysis was completed with Indica Labs HALO image analysis software. […] LNPs were prepared according to Example 2 using NPI-Luc as the mRNA construct. LNPs were delivered to mice by intratracheal instillation for a dose of ˜0.7 mpk. LNP protein expression in respiratory epithelium was evaluated according to sample collection and assay procedures A and B. The results are shown in Table 13a.

respiratory epithelium [2] = assay: LNP protein expression in rat after single dose of mRNA-LNP by intratracheal delivery (anti-V5 IHC); format: in vivo; conditions: intratracheal instillation, ~1.2 mpk, NPI-Luc mRNA, core with β-sitosterol for SA23
Procedure: as §1, with “LNPs were delivered to mice by intratracheal instillation for a dose of ˜0.7 mpk.” left out, “13b.” for “13a.”

## CC(C)CCC[C@@H](C)[C@H]1CC[C@H]2[C@@H]3CC=C4C[C@@H](OC(=O)NCCNc5c(NCCCN(C)C)c(=O)c5=O)CC[C@]4(C)[C@H]3CC[C@]12C [SA26, (3S,8S,9S,10R,13R,14S,17R)-10,13-dimethyl-17-((R)-6-methylheptan-2-yl)-2,3,4,7,8,9,10,11,12,13,14,15,16,17-tetradecahydro-1H-cyclopenta[a]phenanthren-3-yl (2-((2-((3-(dimethylamino)propyl)amino)-3,4-dioxocyclobut-1-en-1-yl)amino)ethyl)carbamate, hydrochloride salt]
HeLa cells
  Average protein expression per cell (RLU per cell): 84.3 RLU per cell

## CC(C)CCC[C@@H](C)[C@H]1CC[C@H]2[C@@H]3CC=C4C[C@@H](OC(=O)NCCN(C)CCO)CC[C@]4(C)[C@H]3CC[C@]12C [SA6, (3S,8S,9S,10R,13R,14S,17R)-10,13-dimethyl-17-((R)-6-methylheptan-2-yl)-2,3,4,7,8,9,10,11,12,13,14,15,16,17-tetradecahydro-1H-cyclopenta[a]phenanthren-3-yl (2-((2-hydroxyethyl)(methyl)amino)ethyl)carbamate]
HeLa cells
  Average protein expression per cell (RLU per cell): 196.2 RLU per cell

## CC(C)CCC[C@@H](C)[C@H]1CC[C@H]2[C@@H]3CC=C4C[C@@H](OC(=O)CCc5cnc[nH]5)CC[C@]4(C)[C@H]3CC[C@]12C [SA11, (3S,8S,9S,10R,13R,14S,17R)-10,13-dimethyl-17-((R)-6-methylheptan-2-yl)-2,3,4,7,8,9,10,11,12,13,14,15,16,17-tetradecahydro-1H-cyclopenta[a]phenanthren-3-yl 3-(1H-imidazol-5-yl)propanoate, hydrochloride salt]
HeLa cells
  Average protein expression per cell (RLU per cell): 5.3 RLU per cell

## CC(C)CCC[C@@H](C)[C@H]1CC[C@H]2[C@@H]3CC=C4C[C@@H](OC(=O)CC5CN6CCC5CC6)CC[C@]4(C)[C@H]3CC[C@]12C (stereo partly drawn) [SA32, (3S,8S,9S,10R,13R,14S,17R)-10,13-Dimethyl-17-((R)-6-methylheptan-2-yl)-2,3,4,7,8,9,10,11,12,13,14,15,16,17-tetradecahydro-1H-cyclopenta[a]phenanthren-3-yl 2-(quinuclidin-3-yl)acetate]
HeLa cells
  Average protein expression per cell (RLU per cell): 301.8 RLU per cell

## CC(C)CCC[C@@H](C)[C@H]1CC[C@H]2[C@@H]3CC=C4C[C@@H](OC(=O)CCC(=O)N(CCCN)CCCCN)CC[C@]4(C)[C@H]3CC[C@]12C [SA31, (3S,8S,9S,10R,13R,14S,17R)-10,13-Dimethyl-17-((R)-6-methylheptan-2-yl)-2,3,4,7,8,9,10,11,12,13,14,15,16,17-tetradecahydro-1H-cyclopenta[a]phenanthren-3-yl 4-((4-aminobutyl)(3-aminopropyl)amino)-4-oxobutanoate dihydrochloride]
HeLa cells
  Average protein expression per cell (RLU per cell): 643.6 RLU per cell
Respiratory epithelium [1]; Mouse Bronchi (left lung)
  Average % V5 positive cells/total cells: 10.52%
Respiratory epithelium [1]; Mouse Trachea
  Average % V5 positive cells/total cells: 27.07%

## CC(C)CCC[C@@H](C)[C@H]1CC[C@H]2[C@@H]3CC=C4C[C@@H](SSCCC(=O)N(CCCN)CCCCNCCCN)CC[C@]4(C)[C@H]3CC[C@]12C [SA39, N-(3-Aminopropyl)-N-(4-((3-aminopropyl)amino)butyl)-3-(((3S,8S,9S,10R,13R,14S,17R)-10,13-dimethyl-17-((R)-6-methylheptan-2-yl)-2,3,4,7,8,9,10,11,12,13,14,15,16,17-tetradecahydro-1H-cyclopenta[a]phenanthren-3-yl)disulfaneyl)propanamide trihydrochloride]
HeLa cells
  Average protein expression per cell (RLU per cell): 201.9 RLU per cell

## CC[C@H](CC[C@@H](C)[C@H]1CC[C@H]2[C@@H]3CC=C4C[C@@H](OC(=O)NCCN(C)C)CC[C@]4(C)[C@H]3CC[C@]12C)C(C)C [SA10, (3S,8S,9S,10R,13R,14S,17R)-17-((2R,5R)-5-Ethyl-6-methylheptan-2-yl)-10,13-dimethyl-2,3,4,7,8,9,10,11,12,13,14,15,16,17-tetradecahydro-1H-cyclopenta[a]phenanthren-3-yl (2-(dimethylamino)ethyl)carbamate]
HeLa cells
  Average protein expression per cell (RLU per cell): 236.6 RLU per cell

## CC(C)CCC[C@@H](C)[C@H]1CC[C@H]2[C@@H]3CC=C4C[C@@H](OC(=O)NCCCNCCCCN)CC[C@]4(C)[C@H]3CC[C@]12C [SA30, (3S,8S,9S,10R,13R,14S,17R)-10,13-Dimethyl-17-((R)-6-methylheptan-2-yl)-2,3,4,7,8,9,10,11,12,13,14,15,16,17-tetradecahydro-1H-cyclopenta[a]phenanthren-3-yl (3-((4-aminobutyl)amino)propyl)carbamate dihydrochloride]
HeLa cells
  Average protein expression per cell (RLU per cell): 648.3 RLU per cell

## CC(C)CCC[C@@H](C)[C@H]1CC[C@H]2[C@@H]3CC=C4C[C@@H](OC(=O)NCCNC(=N)N)CC[C@]4(C)[C@H]3CC[C@]12C [SA23, (3S,8S,9S,10R,13R,14S,17R)-10,13-dimethyl-17-((R)-6-methylheptan-2-yl)-2,3,4,7,8,9,10,11,12,13,14,15,16,17-tetradecahydro-1H-cyclopenta[a]phenanthren-3-yl (2-guanidinoethyl)carbamate, hydrochloride salt]
HeLa cells
  Average protein expression per cell (RLU per cell): 868.8 RLU per cell
Respiratory epithelium [1]; Mouse Bronchi (left lung)
  Average % V5 positive cells/total cells: 0.98%
Respiratory epithelium [1]; Mouse Trachea
  Average % V5 positive cells/total cells: 0.8%
Respiratory epithelium [2]; Rat Bronchi (left and right lung)
  Average % V5 positive cells/total cells: 1.38%
Respiratory epithelium [2]; Rat Trachea
  Average % V5 positive cells/total cells: 0.83%

## CC(C)CCC[C@@H](C)[C@H]1CC[C@H]2[C@@H]3CC=C4C[C@@H](OC(=O)CCC(=O)N(CCCN(C)C)CCCN(C)C)CC[C@]4(C)[C@H]3CC[C@]12C [SA24, (3S,8S,9S,10R,13R,14S,17R)-10,13-Dimethyl-17-((R)-6-methylheptan-2-yl)-2,3,4,7,8,9,10,11,12,13,14,15,16,17-tetradecahydro-1H-cyclopenta[a]phenanthren-3-yl 4-(bis(3-(dimethylamino)propyl)amino)-4-oxobutanoate dihydrochloride]
HeLa cells
  Average protein expression per cell (RLU per cell): 457.2 RLU per cell

## CC(C)CCC[C@@H](C)[C@H]1CC[C@H]2[C@@H]3CC=C4C[C@@H](OC(=O)N(CCCN)CCCCN)CC[C@]4(C)[C@H]3CC[C@]12C [SA29, (3S,8S,9S,10R,13R,14S,17R)-10,13-Dimethyl-17-((R)-6-methylheptan-2-yl)-2,3,4,7,8,9,10,11,12,13,14,15,16,17-tetradecahydro-1H-cyclopenta[a]phenanthren-3-yl (4-aminobutyl)(3-aminopropyl)carbamate dihydrochloride]
HeLa cells
  Average protein expression per cell (RLU per cell): 550.3 RLU per cell
